Reference: the supplement of paper PMC10627819

How the values were obtained:
B. subtilis 168 [1] = assay: fitness (endpoint OD595 vs no drug) (fraction); higher = more growth
Outline: (§1)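 Fitness was defined as the optical density at the transition into stationary phase relative to the robust mean of no-drug control wells. Values were capped at 1. Cultures were started at OD595 0.01 in 384-well plates (30 µl, or 55 µl for S. pneumoniae) in TSB, LB Lennox or CY at 37 °C. OD595 was recorded every 30 min over 14 h, with the first reading subtracted as background.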

S. aureus DSM 20231 [2] = assay: as above
Outline: as §1

S. pneumoniae D39V [3] = assay: as above
Outline: as §1

S. aureus Newman = assay: Bliss interaction score (quartile over a dose matrix) (fitness difference); higher = more antagonism (negative = synergy)
Outline: (§2)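 The Bliss score is observed minus expected fitness under the product model, reported as quartiles over technical, biological and donor/recipient replicates. Fitness is the OD595 at entry into stationary phase divided by the plate's robust no-drug mean and capped at 1. Single-drug fitness was inferred from combination data.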

B. subtilis 168 [4] = assay: as above
Outline: as §2

S. aureus DSM 20231 [5] = assay: as above
Outline: as §2

S. pneumoniae D39V [6] = assay: as above
Outline: as §2
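Throughout, for Bliss interaction score (quartile over a dose matrix): first quartile when negative (synergy) and third quartile when positive (antagonism).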

CCC[C@@H]1C[C@@H](C(=O)N[C@@H]([C@H]2O[C@H](SC)[C@H](O)[C@@H](O)[C@H]2O)[C@@H](C)O)N(C)C1 [Lincomycin] + CN[C@@H]1[C@H](O)[C@H](NC)[C@H]2O[C@@]3(O)C(=O)C[C@@H](C)O[C@H]3O[C@@H]2[C@H]1O [Spectinomycin]
fitness
Conditions | partner 2 µg/mL | partner 4 µg/mL | partner 8 µg/mL | partner 16 µg/mL
B. subtilis 168 [1], first compound 0.1 µg/mL | 0.923 | 0.923 | 0.849 | –
B. subtilis 168 [1], first compound 0.2 µg/mL | 0.937 | 0.929 | 0.847 | –
B. subtilis 168 [1], first compound 0.4 µg/mL | 0.907 | 0.859 | 0.861 | –
S. aureus DSM 20231 [2], first compound 0.1 µg/mL | – | 0.819 | 0.732 | 0.566
S. aureus DSM 20231 [2], first compound 0.2 µg/mL | – | 0.581 | 0.54 | 0.351
S. aureus DSM 20231 [2], first compound 0.4 µg/mL | – | – | – | 0.122
S. pneumoniae D39V [3], first compound 0.215 µg/mL | – | 0.777 | 0.787 | 0.721
S. pneumoniae D39V [3], first compound 0.43 µg/mL | – | 0.688 | 0.713 | 0.616
S. pneumoniae D39V [3], first compound 0.86 µg/mL | – | 0.268 | 0.286 | 0.158

fitness, one replicate
Conditions | first compound 0.1 µg/mL | first compound 0.2 µg/mL | first compound 0.4 µg/mL | first compound 0.8 µg/mL
S. aureus DSM 20231 [2], partner 32 µg/mL | 0.377 | 0.176 | 0.0758 | –
S. aureus DSM 20231 [2], partner 64 µg/mL | 0.0561 | 0.042 | 0.0347 | –
S. pneumoniae D39V [3], partner 4 µg/mL | – | 0.777 | 0.659 | 0.412
S. pneumoniae D39V [3], partner 8 µg/mL | – | 0.752 | 0.63 | 0.35

Conditions | Bliss interaction score
B. subtilis 168 [4] | -0.0786
S. aureus DSM 20231 [5] | -0.175
S. aureus Newman | -0.195
S. pneumoniae D39V [6] | -0.0914

CCC[C@@H]1C[C@@H](C(=O)N[C@@H]([C@H]2O[C@H](SC)[C@H](O)[C@@H](O)[C@H]2O)[C@@H](C)O)N(C)C1 [Lincomycin] + COc1c(N2C[C@@H]3CCCN[C@@H]3C2)c(F)cc2c(=O)c(C(=O)O)cn(C3CC3)c12 [Moxifloxacin]
fitness, one replicate
Conditions | first compound 0.1 µg/mL | first compound 0.2 µg/mL | first compound 0.4 µg/mL
B. subtilis 168 [1], partner 0.0312 µg/mL | 0.0564 | 0.039 | –
B. subtilis 168 [1], partner 0.0625 µg/mL | 0.0916 | 0.06 | –
B. subtilis 168 [1], partner 0.125 µg/mL | 0.0846 | 0.0751 | –
S. aureus DSM 20231 [2], partner 0.06 µg/mL | 0.661 | 0.677 | 0.562
S. aureus DSM 20231 [2], partner 0.12 µg/mL | 0.498 | 0.527 | 0.448

Conditions | fitness
B. subtilis 168 [1], first compound 0.1 µg/mL, partner 2 µg/mL | 0.0333
B. subtilis 168 [1], first compound 0.1 µg/mL, partner 4 µg/mL | 0.0228
B. subtilis 168 [1], first compound 0.1 µg/mL, partner 8 µg/mL | 0.0229
B. subtilis 168 [1], first compound 0.2 µg/mL, partner 2 µg/mL | 0.0297
B. subtilis 168 [1], first compound 0.2 µg/mL, partner 4 µg/mL | 0.0322
B. subtilis 168 [1], first compound 0.2 µg/mL, partner 8 µg/mL | 0.0239
B. subtilis 168 [1], first compound 0.4 µg/mL, partner 0.0312 µg/mL | 0.0344
B. subtilis 168 [1], first compound 0.4 µg/mL, partner 0.0625 µg/mL | 0.036
B. subtilis 168 [1], first compound 0.4 µg/mL, partner 0.125 µg/mL | 0.0478
B. subtilis 168 [1], first compound 0.4 µg/mL, partner 2 µg/mL | 0.0261
B. subtilis 168 [1], first compound 0.4 µg/mL, partner 4 µg/mL | 0.0257
B. subtilis 168 [1], first compound 0.4 µg/mL, partner 8 µg/mL | 0.0306
B. subtilis 168 [1], first compound 0.8 µg/mL, partner 0.0312 µg/mL | 0.0429
B. subtilis 168 [1], first compound 0.8 µg/mL, partner 0.0625 µg/mL | 0.049
B. subtilis 168 [1], first compound 0.8 µg/mL, partner 0.125 µg/mL | 0.0451
B. subtilis 168 [1], first compound 1.6 µg/mL, partner 0.0312 µg/mL | 0.0535
B. subtilis 168 [1], first compound 1.6 µg/mL, partner 0.0625 µg/mL | 0.0507
B. subtilis 168 [1], first compound 1.6 µg/mL, partner 0.125 µg/mL | 0.0559
S. aureus DSM 20231 [2], first compound 0.1 µg/mL, partner 0.0075 µg/mL | 0.823
S. aureus DSM 20231 [2], first compound 0.1 µg/mL, partner 0.015 µg/mL | 0.765
S. aureus DSM 20231 [2], first compound 0.1 µg/mL, partner 0.03 µg/mL | 0.671
S. aureus DSM 20231 [2], first compound 0.2 µg/mL, partner 0.0075 µg/mL | 0.737
S. aureus DSM 20231 [2], first compound 0.2 µg/mL, partner 0.015 µg/mL | 0.715
S. aureus DSM 20231 [2], first compound 0.2 µg/mL, partner 0.03 µg/mL | 0.689
S. aureus DSM 20231 [2], first compound 0.4 µg/mL, partner 0.0075 µg/mL | 0.301
S. aureus DSM 20231 [2], first compound 0.4 µg/mL, partner 0.015 µg/mL | 0.278
S. aureus DSM 20231 [2], first compound 0.4 µg/mL, partner 0.03 µg/mL | 0.359
S. pneumoniae D39V [3], first compound 0.2 µg/mL, partner 0.005 µg/mL | 0.749
S. pneumoniae D39V [3], first compound 0.2 µg/mL, partner 0.01 µg/mL | 0.829
S. pneumoniae D39V [3], first compound 0.2 µg/mL, partner 0.02 µg/mL | 0.757
S. pneumoniae D39V [3], first compound 0.215 µg/mL, partner 0.0037 µg/mL | 0.742
S. pneumoniae D39V [3], first compound 0.215 µg/mL, partner 0.0075 µg/mL | 0.769
S. pneumoniae D39V [3], first compound 0.215 µg/mL, partner 0.015 µg/mL | 0.751
S. pneumoniae D39V [3], first compound 0.4 µg/mL, partner 0.005 µg/mL | 0.675
S. pneumoniae D39V [3], first compound 0.4 µg/mL, partner 0.01 µg/mL | 0.704
S. pneumoniae D39V [3], first compound 0.4 µg/mL, partner 0.02 µg/mL | 0.653
S. pneumoniae D39V [3], first compound 0.43 µg/mL, partner 0.0037 µg/mL | 0.629
S. pneumoniae D39V [3], first compound 0.43 µg/mL, partner 0.0075 µg/mL | 0.651
S. pneumoniae D39V [3], first compound 0.43 µg/mL, partner 0.015 µg/mL | 0.677
S. pneumoniae D39V [3], first compound 0.86 µg/mL, partner 0.0037 µg/mL | 0.34
S. pneumoniae D39V [3], first compound 0.86 µg/mL, partner 0.0075 µg/mL | 0.339
S. pneumoniae D39V [3], first compound 0.86 µg/mL, partner 0.015 µg/mL | 0.297

Conditions | Bliss interaction score
B. subtilis 168 [4] | -0.0143
S. aureus DSM 20231 [5] | 0.124
S. aureus Newman | 0.0565
S. pneumoniae D39V [6] | 0.0862

CCC[C@@H]1C[C@@H](C(=O)N[C@@H]([C@H]2O[C@H](SC)[C@H](O)[C@@H](O)[C@H]2O)[C@@H](C)O)N(C)C1 [Lincomycin] + COc1ccc(C[C@H](N)C(=O)N[C@H]2[C@@H](O)[C@H](n3cnc4c(N(C)C)ncnc43)O[C@@H]2CO)cc1 [Puromycin]
fitness
Conditions | first compound 0.1 µg/mL | first compound 0.2 µg/mL | first compound 0.215 µg/mL | first compound 0.4 µg/mL | first compound 0.43 µg/mL | first compound 0.86 µg/mL
B. subtilis 168 [1], partner 0.39 µg/mL | 0.867 | 0.869 | – | 0.854 | – | –
B. subtilis 168 [1], partner 0.78 µg/mL | 0.889 | 0.883 | – | 0.91 | – | –
B. subtilis 168 [1], partner 1.56 µg/mL | 0.873 | 0.866 | – | 0.843 | – | –
S. aureus DSM 20231 [2], partner 0.39 µg/mL | 0.877 | 0.806 | – | 0.304 | – | –
S. aureus DSM 20231 [2], partner 0.78 µg/mL | 0.935 | 0.776 | – | 0.303 | – | –
S. aureus DSM 20231 [2], partner 1.56 µg/mL | 0.906 | 0.759 | – | 0.253 | – | –
S. pneumoniae D39V [3], partner 1 µg/mL | – | – | 0.838 | – | 0.756 | 0.436
S. pneumoniae D39V [3], partner 2 µg/mL | – | – | 0.792 | – | 0.709 | 0.3
S. pneumoniae D39V [3], partner 4 µg/mL | – | – | 0.743 | – | 0.536 | 0.251

fitness, one replicate
Conditions | first compound 0.1 µg/mL | first compound 0.2 µg/mL | first compound 0.4 µg/mL | first compound 0.8 µg/mL
S. aureus DSM 20231 [2], partner 3.12 µg/mL | 0.822 | 0.489 | 0.207 | –
S. aureus DSM 20231 [2], partner 6.24 µg/mL | 0.282 | 0.217 | 0.093 | –
S. pneumoniae D39V [3], partner 1 µg/mL | – | 0.64 | 0.382 | 0.0776
S. pneumoniae D39V [3], partner 2 µg/mL | – | 0.621 | 0.325 | 0.127
S. pneumoniae D39V [3], partner 4 µg/mL | – | 0.275 | 0.083 | 0.0925

Conditions | Bliss interaction score
B. subtilis 168 [4] | -0.0436
S. aureus DSM 20231 [5] | -0.0648
S. aureus Newman | 0.0533
S. pneumoniae D39V [6] | -0.157
